From ChEMBL document CHEMBL1152560, “Substituted 2-arylbenzothiazoles as kinase inhibitors: hit-to-lead optimization” (Bioorg Med Chem, 2009)

Columns and labels:
[1] = target: T1, Megakaryocyte-associated tyrosine-protein kinase (Homo sapiens) (UniProt P42679); test: Residual activity of MATK at 1 uM by microplate scintillation counting
T1 sequence (whole entry): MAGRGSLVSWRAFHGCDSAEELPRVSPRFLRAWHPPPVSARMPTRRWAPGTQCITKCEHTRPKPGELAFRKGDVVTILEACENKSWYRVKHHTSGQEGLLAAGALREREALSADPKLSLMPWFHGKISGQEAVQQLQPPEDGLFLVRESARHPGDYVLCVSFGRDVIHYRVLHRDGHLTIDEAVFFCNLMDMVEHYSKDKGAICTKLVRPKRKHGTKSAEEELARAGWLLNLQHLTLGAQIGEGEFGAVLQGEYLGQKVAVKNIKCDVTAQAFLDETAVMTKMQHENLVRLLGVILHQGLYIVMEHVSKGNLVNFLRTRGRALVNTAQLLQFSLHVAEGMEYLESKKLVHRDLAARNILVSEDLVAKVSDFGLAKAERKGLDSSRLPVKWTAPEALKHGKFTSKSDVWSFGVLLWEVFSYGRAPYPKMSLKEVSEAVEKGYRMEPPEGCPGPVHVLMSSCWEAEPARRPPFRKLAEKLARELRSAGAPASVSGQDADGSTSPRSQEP

[2] = target: Homeodomain-interacting protein kinase 1 (Homo sapiens) (UniProt Q86Z02); test: Residual activity of HIPK1 at 0.1 uM by microplate scintillation counting
Homeodomain-interacting protein kinase 1 (Homo sapiens), sequence (Q86Z02 whole entry, looked up): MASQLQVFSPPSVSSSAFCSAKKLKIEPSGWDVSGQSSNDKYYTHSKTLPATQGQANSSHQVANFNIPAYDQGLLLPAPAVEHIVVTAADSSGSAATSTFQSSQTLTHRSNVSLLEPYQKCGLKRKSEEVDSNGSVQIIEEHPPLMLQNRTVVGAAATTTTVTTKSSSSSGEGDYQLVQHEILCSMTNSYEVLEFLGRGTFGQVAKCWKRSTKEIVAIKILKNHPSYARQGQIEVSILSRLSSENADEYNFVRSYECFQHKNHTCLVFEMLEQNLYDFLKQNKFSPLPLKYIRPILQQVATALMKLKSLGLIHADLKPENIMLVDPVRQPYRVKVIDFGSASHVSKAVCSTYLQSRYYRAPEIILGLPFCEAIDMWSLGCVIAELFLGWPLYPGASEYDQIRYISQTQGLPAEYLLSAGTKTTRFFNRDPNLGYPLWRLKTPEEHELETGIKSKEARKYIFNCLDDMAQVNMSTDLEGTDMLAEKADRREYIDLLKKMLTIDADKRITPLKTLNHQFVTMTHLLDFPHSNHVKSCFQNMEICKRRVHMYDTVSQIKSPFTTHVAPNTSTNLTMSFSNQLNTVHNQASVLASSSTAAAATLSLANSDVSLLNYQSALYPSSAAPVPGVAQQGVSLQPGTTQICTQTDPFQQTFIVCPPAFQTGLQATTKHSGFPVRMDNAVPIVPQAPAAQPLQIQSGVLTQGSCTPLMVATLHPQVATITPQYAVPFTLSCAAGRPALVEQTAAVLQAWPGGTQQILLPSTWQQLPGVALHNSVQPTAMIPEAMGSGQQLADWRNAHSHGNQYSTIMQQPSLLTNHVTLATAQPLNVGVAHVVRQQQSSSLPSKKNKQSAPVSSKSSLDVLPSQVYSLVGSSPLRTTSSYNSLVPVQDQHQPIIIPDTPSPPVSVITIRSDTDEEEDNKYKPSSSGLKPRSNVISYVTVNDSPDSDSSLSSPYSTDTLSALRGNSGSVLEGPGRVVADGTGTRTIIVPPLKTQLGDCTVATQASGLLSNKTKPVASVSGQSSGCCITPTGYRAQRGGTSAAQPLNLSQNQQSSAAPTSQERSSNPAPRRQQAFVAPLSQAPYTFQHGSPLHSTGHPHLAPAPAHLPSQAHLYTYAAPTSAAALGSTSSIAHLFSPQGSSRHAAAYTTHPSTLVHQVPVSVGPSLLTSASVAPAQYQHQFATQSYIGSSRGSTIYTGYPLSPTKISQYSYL

[3] = target: T2, Serine/threonine-protein kinase Sgk3 (Homo sapiens) (UniProt Q96BR1); test: Residual activity of SGK3 at 10 uM by microplate scintillation counting
T2 sequence (whole entry): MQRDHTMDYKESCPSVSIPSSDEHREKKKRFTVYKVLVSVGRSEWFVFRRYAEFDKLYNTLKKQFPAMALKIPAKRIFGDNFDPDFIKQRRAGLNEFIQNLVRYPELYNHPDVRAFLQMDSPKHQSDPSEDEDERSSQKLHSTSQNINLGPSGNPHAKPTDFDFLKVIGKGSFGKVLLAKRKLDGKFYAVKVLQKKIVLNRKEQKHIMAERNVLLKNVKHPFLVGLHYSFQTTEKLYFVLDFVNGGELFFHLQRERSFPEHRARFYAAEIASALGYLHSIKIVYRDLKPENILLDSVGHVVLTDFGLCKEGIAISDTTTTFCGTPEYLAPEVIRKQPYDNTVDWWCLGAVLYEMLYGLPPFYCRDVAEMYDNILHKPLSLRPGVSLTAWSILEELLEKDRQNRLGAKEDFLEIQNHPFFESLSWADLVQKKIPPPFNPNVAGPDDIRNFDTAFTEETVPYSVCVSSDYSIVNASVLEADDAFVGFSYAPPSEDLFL

[4] = target: LIM domain kinase 1 (Homo sapiens) (UniProt P53667); test: Residual activity of LIMK1 at 10 uM by microplate scintillation counting
[5] = target: RAC-beta serine/threonine-protein kinase (Homo sapiens) (UniProt P31751); test: Residual activity of AKT2 at 0.1 uM by microplate scintillation counting
RAC-beta serine/threonine-protein kinase (Homo sapiens), sequence (P31751 whole entry): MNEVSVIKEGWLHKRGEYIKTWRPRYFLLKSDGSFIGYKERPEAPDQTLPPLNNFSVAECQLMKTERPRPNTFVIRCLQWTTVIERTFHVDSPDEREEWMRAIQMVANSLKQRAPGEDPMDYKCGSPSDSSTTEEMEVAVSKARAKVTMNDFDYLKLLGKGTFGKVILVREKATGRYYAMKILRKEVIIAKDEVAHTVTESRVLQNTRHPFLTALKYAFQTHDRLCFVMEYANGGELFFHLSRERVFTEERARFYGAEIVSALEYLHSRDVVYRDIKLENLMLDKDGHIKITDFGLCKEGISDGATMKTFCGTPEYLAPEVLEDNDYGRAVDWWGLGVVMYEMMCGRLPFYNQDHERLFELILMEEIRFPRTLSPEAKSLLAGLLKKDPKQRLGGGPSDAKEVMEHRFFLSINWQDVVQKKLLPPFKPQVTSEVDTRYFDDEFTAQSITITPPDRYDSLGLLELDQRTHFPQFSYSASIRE

[6] = target: Ribosomal protein S6 kinase alpha-4 (Homo sapiens) (UniProt O75676); test: Residual activity of RPS6KA4 at 0.1 uM by microplate scintillation counting
Ribosomal protein S6 kinase alpha-4 (Homo sapiens), sequence (O75676 whole entry, looked up): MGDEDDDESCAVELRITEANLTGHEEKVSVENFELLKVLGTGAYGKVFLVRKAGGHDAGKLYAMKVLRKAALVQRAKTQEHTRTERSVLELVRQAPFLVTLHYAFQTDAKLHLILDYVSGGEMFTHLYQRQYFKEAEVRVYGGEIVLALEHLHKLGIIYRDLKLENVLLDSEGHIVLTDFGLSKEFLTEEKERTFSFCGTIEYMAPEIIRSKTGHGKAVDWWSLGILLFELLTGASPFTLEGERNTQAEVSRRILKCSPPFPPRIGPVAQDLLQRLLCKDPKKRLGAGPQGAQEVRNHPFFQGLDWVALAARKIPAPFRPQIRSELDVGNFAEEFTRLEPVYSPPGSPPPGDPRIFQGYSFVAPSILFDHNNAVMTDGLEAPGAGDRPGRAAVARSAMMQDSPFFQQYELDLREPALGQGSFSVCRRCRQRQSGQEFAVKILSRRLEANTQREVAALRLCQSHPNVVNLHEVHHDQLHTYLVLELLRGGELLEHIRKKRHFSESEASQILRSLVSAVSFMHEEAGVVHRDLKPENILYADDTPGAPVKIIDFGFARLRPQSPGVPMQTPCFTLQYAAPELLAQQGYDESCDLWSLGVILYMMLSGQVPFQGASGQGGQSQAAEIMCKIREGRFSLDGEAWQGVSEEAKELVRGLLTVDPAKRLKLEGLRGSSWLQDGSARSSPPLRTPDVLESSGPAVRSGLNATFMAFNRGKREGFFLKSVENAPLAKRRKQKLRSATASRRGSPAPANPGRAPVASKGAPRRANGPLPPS

[7] = target: CDK9/cyclin T1 (Homo sapiens) (UniProt O60563+P50750); test: Residual activity of CDK9/Cyclin T at 1 uM by microplate scintillation counting; format: protein-complex assay
[8] = target: Glycogen synthase kinase-3 beta (Homo sapiens) (UniProt P49841); test: Residual activity of GSK3-beta at 10 uM by microplate scintillation counting
Glycogen synthase kinase-3 beta (Homo sapiens), sequence (P49841 whole entry, looked up): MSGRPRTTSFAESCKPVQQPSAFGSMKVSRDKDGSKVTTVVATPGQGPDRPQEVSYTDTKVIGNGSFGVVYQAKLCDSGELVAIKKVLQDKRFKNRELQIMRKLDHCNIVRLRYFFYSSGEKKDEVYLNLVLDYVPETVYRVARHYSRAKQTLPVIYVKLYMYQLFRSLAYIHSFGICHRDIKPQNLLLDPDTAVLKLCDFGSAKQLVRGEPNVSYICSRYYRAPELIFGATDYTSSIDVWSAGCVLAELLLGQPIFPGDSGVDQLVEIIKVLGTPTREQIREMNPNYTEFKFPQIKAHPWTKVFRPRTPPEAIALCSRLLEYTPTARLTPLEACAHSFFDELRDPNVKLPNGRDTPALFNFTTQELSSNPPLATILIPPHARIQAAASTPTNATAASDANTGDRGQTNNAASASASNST

[9] = target: Receptor tyrosine-protein kinase erbB-2 (Homo sapiens, UniProt P04626); test: Residual activity of ERBB2 at 0.1 uM by microplate scintillation counting
Receptor tyrosine-protein kinase erbB-2, sequence (P04626 whole entry): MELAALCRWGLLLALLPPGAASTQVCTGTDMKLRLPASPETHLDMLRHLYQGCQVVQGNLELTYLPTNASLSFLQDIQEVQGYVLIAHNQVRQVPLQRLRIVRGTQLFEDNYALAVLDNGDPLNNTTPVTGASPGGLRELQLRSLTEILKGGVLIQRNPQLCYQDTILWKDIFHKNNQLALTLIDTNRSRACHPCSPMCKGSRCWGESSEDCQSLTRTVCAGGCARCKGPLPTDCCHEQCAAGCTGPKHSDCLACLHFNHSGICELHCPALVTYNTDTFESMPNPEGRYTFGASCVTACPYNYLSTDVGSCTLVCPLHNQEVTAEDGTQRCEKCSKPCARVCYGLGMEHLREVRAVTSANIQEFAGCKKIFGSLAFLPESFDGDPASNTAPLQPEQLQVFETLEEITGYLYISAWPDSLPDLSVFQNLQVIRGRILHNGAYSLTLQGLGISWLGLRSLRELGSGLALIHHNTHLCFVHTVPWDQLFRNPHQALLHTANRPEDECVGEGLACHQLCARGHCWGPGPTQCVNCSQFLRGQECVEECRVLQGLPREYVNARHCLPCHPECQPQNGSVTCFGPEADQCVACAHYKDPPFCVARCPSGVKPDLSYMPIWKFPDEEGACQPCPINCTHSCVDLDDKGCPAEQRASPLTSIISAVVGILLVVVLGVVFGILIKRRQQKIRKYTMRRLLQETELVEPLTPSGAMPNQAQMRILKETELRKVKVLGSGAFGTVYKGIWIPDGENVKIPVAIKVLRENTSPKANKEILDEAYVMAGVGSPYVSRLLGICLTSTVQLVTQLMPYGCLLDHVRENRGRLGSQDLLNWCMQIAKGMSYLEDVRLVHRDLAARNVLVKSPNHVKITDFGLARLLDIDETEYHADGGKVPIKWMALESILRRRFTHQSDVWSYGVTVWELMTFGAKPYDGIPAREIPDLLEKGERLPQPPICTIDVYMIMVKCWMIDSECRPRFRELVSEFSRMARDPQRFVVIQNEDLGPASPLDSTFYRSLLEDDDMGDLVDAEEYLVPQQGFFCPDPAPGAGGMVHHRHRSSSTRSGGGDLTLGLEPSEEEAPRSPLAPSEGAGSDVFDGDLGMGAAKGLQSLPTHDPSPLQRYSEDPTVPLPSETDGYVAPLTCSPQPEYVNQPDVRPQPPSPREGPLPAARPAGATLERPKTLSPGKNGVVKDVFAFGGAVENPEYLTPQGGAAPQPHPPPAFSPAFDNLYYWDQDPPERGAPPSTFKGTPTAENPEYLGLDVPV

[10] = target: T3, Tyrosine-protein kinase JAK3 (Homo sapiens) (UniProt P52333); test: Residual activity of JAK3 at 1 uM by microplate scintillation counting
T3 sequence (whole entry): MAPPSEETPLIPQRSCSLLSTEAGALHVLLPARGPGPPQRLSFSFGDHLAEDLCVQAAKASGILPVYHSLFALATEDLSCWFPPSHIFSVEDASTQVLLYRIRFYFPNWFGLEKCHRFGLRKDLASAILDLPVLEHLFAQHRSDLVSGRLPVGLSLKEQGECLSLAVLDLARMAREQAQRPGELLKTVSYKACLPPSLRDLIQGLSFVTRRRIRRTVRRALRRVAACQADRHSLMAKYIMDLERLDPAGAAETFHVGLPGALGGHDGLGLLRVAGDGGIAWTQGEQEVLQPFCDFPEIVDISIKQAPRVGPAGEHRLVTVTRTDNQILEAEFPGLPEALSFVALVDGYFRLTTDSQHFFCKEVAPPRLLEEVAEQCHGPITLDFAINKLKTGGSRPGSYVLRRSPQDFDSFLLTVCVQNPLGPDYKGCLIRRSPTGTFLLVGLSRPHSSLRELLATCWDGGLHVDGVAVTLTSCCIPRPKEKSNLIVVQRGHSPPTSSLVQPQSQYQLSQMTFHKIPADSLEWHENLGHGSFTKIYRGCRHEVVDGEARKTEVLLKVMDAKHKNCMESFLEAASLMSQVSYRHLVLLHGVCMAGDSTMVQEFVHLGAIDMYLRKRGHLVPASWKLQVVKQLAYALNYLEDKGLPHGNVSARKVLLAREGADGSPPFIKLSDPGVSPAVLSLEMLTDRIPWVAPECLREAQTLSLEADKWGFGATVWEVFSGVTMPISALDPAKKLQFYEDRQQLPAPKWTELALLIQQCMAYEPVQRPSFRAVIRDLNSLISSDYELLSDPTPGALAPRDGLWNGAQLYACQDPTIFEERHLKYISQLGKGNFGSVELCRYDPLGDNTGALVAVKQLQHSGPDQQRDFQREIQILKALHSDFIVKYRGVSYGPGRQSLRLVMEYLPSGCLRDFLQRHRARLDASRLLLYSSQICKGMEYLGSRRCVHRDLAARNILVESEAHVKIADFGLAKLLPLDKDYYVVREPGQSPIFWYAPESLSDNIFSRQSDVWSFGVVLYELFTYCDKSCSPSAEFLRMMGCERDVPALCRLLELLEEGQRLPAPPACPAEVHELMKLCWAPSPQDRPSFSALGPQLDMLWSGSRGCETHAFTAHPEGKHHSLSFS

[11] = target: Cyclin-dependent kinase 16 (Homo sapiens) (UniProt Q00536); test: Residual activity of PCTAIRE1 at 1 uM by microplate scintillation counting
Cyclin-dependent kinase 16 (Homo sapiens), sequence (Q00536 whole entry): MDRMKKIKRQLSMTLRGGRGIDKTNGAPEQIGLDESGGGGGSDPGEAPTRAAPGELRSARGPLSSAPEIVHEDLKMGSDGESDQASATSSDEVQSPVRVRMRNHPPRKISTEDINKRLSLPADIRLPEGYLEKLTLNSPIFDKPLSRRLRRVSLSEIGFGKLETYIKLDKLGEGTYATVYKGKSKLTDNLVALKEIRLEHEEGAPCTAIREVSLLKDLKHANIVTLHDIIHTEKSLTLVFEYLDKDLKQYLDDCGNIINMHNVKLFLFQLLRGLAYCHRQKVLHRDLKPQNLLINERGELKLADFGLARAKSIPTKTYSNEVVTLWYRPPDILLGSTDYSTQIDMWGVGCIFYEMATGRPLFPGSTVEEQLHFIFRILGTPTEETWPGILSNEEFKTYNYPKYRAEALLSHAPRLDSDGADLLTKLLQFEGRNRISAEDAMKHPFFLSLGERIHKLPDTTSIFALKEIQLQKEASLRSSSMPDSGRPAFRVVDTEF

residual activity [1] [%] | residual activity [2] [%] | residual activity [3] [%] | residual activity [4] [%] | residual activity [5] [%] | residual activity [6] [%] | residual activity [7] [%] | residual activity [8] [%] | residual activity [9] [%] | residual activity [10] [%] | residual activity [11] [%] | Structure (SMILES)
235 | 83 | 98 | 96 | 102 | 88 | 93 | 104 | 112 | 93 | 81 | COc1cc2c(Oc3ccc(-c4nc5ccccc5s4)cc3)ncnc2cc1OCCCN1CCCC1
162 | 85 | 97 | 95 | 108 | 93 | 92 | 98 | 97 | 92 | 86 | COc1cc2c(Oc3ccc(-c4nc5ccccc5s4)cc3F)ncnc2cc1OCCCN1CCN(C)CC1
141 | 99 | 112 | 89 | 97 | 91 | 102 | 123 | 103 | 101 | 88 | COc1cc2c(Oc3ccc(-c4nc5ccccc5s4)cc3)ncnc2cc1OCCCN1CCN(C)CC1
